Laboratory results as given in PubChem BioAssay (NCI).
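All cell lines were grown in 96-well plates and treated with compound for 48 hours. Here, GI50 denotes the concentration required for 50% inhibition of growth. The concentration for full growth arrest is given as TGI.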

Key:
Assay in all cases: growth of human tumour cells (NCI), 48 h
HCT-15 colon = test system: HCT-15 colon
786-0 renal = test system: 786-0 renal
NCI-H226 lung = test system: NCI-H226 lung
HOP-92 NSCLC = test system: HOP-92 NSCLC
U251 CNS = test system: U251 CNS
MDA-MB-231 breast = test system: MDA-MB-231 breast
NCI-H23 lung = test system: NCI-H23 lung
OVCAR-5 ovarian = test system: OVCAR-5 ovarian
UACC-62 melanoma = test system: UACC-62 melanoma
HL-60(TB) leukemia = test system: HL-60(TB) leukemia

Structure (SMILES)	GI50 (HCT-15 colon) [µM]	TGI (HCT-15 colon) [µM]	GI50 (786-0 renal) [µM]	TGI (786-0 renal) [µM]	GI50 (NCI-H226 lung) [µM]	TGI (NCI-H226 lung) [µM]	GI50 (HOP-92 NSCLC) [µM]	TGI (HOP-92 NSCLC) [µM]	GI50 (U251 CNS) [µM]	TGI (U251 CNS) [µM]	GI50 (MDA-MB-231 breast) [µM]	TGI (MDA-MB-231 breast) [µM]	GI50 (NCI-H23 lung) [µM]	TGI (NCI-H23 lung) [µM]	GI50 (OVCAR-5 ovarian) [µM]	TGI (OVCAR-5 ovarian) [µM]	TGI (UACC-62 melanoma) [µM]	TGI (HL-60(TB) leukemia) [µM]	GI50 (UACC-62 melanoma) [µM]	GI50 (HL-60(TB) leukemia) [µM]
COc1ccc(-c2nnc3n(C)c(=O)c4ccccc4n23)cc1N	0.0498	> 100	3.72	> 100	> 100	> 100	10.9	99.5	1.63	> 100	3.92	> 100	5.28	> 100	9.26	> 100				
C=CCCCCC1CCC2CCC(CCCCC=C)N12 (stereo not given)		19.4		26.9		34.1		22.8		34.6							30.6	36.5		
COc1ccc(C(=O)Nc2ccc(O)c(=O)cc2)cc1		89.5		> 100		> 100				> 100		> 100		> 100		> 100	> 100	54.6		
CC12CCC(=O)C[C@H]1CCC(OC=O)C2Br (stereo not given in full)		> 100		> 100		> 100		> 100		> 100				> 100		> 100	> 100	> 100		
Cc1ccc2nc(/C(=C/c3ccc(/C=C(\NC(=O)c4ccccc4)c4nc5ccc(C)cc5[nH]4)c(C)c3)NC(=O)c3ccccc3)[nH]c2c1		> 100		60.4		77.5		52		60.2				45.3		33.8	13.1			
COc1ccc(CCN(C)C2CCC(C#N)(c3ccc(OC)c(OC)c3)CC2)cc1OC (stereo not given)		> 100		> 100		> 100		> 100		> 100				> 100		> 100	> 100	> 100		
O=C(Nc1cccc(C(F)(F)F)c1)c1ccc(NC2=C(Cl)C(=O)N(Cc3ccc(Cl)cc3Cl)C2=O)cc1	2.31	5.66	3.96	14.3	5.92	24	4.71	16.2	5.82	19	12.5	27.6					26.6	12.4	13.7	2.72
COC(=O)/C(C#N)=C1\N=NNN1c1ccc(OC)cc1		> 100		> 100		> 100		> 100		> 100				> 100			> 100			
CN(C)C(=S)/N=c1\sn(C)/c(=N\C(=S)N(C)C)n1C		> 100		> 100		> 100		> 100		> 100				> 100		> 100	> 100	> 100		
COC(=O)/C(=C/c1ccc(OC)cc1)C(C(=O)O)=C1CCCC1		> 100		> 100		> 100		> 100		> 100				> 100		> 100	> 100	> 100		
COC(=O)[C@]12CC[C@@H](C)[C@H](C)[C@@H]1C1=CC[C@@H]3[C@@]4(C)C[C@@H](O)[C@H](O)[C@@](C)(CO)C4=CC[C@@]3(C)[C@]1(C)CC2	15.1	31	18.5	34.5	20.1	40.4	19.2	34.9	16.5	34.1	16.3	34.4	16.2	33.6	18.3	35.3		34.7		16.8
CCCCCCCCCCCCCCCC(=O)OCCOCCOCCOCc1ccccc1				> 100		> 100		69.4		> 100				> 100		> 100	> 100			
COC(=O)/C(=N\NC(N)=S)C(C(=O)OC)C(=O)C(=O)Nc1ccc(C)cc1 (stereo not given)		> 100		> 100		> 100				> 100				> 100		> 100	> 100	> 100		
COC1C(OC(=S)Nc2ccccc2)c2ccccc2N1C(C)=O (stereo not given)		> 100		> 100				92.2		> 100				> 100			> 100	> 100		
NC1CCN(Cc2ccccc2)CC1	> 100	> 100	> 100	> 100			> 100	> 100	> 100	> 100	> 100	> 100	> 100	> 100	> 100	> 100	> 100	> 100	> 100	> 100
Cc1nc(Nc2cccnc2)sc1C(=O)/C=C/c1ccc(F)cc1	2.14	10.2	2.94	19.4			3.1	9.98	2.95	8.83	4.03	> 100	3.93	20.7	2.78	23	4.99		1.99	
CC1=Cc2cccc(C)c2C(=O)C1=O		16.4		6.96		30.5		2.92		41				32.8		34.2	10.7	1.37		
O=C(/C(=C/c1ccc(Cl)cc1)c1ccccc1)c1ccccc1		30.6		56.4		31.7		41.7		33.9				40.5		42.3	29.4	66.5		
CCOC(=O)c1nc2c(OC)nn(O)cc-2c1[N+](=O)[O-]		36.2		30.7		79.6				30.8						33.7	40.5	46.4		
O=C1N=C2Sc3ccc4ccccc4c3N2C1=O		61.9		36.1		57		30.6		39.6				53.3		> 100	> 100	> 100		
COCC(OC)C(CC=C(C#N)C#N)OC (stereo not given)		> 100		> 100				> 100		> 100				> 100		> 100	> 100	> 100		
